In article PMC11513920, “Building Metabolically Stable and Potent Anti-HIV Thioether-Lipid Analogues of Tenofovir Exalidex: A thorough Pharmacological Analysis” (Journal of Medicinal Chemistry, 2024) one finds CC50 and IC50 data, which are given here for 3 compounds.

One data set concerns HEK293T cells. Put plainly: Cellular cytotoxicity (cell viability, CellTiter 96 or resazurin). Particulars: HEK293T cells, 48 h, compounds formulated with HSA (5:1). On the technique in general: The colour change of resazurin is a common sign of viable cells or microbes.
Data set [1] concerns HIV-1 subtype C strain MJ4. Briefly: Single-cycle non-replicating HIV pseudoviral luciferase assay in HEK293T cells. Particulars: Human immunodeficiency virus 1, HEK-293T, read-out: HIV IC50.
Description: Second, HIV IC50 and cellular CC50 were determined with a pseudoviral, whole (HEK293T) cell, nonreplicative HIV assay, using the HIV-1 subtype C strain MJ4 (refer to Experimental Methods). To account for the unique amphiphilic properties of TXL and the novel HTP-based prodrugs, all compounds were formulated in a human serum albumin (HSA) solution (5:1 drug:protein).
Assessment of cytotoxicity and antiviral activity of all final compounds in vitro was conducted according to previously reported procedures.[39] In summary, human embryonic kidney (HEK293T) cells maintained in high glucose (25 mM), Dulbecco’s modified Eagle’s medium (DMEM) supplemented with fetal bovine serum (10%), sodium pyruvate (1 mM), L-glutamine (2 mM), HEPES (25 mM), and gentamicin (50 μg/mL) were used for determinations. The cells were maintained in an incubator at 37 °C under 5% CO2 in a humidified atmosphere. For both cytotoxicity and antiviral screening, all compounds were evaluated in duplicate in at least two independent experiments. All final compounds were formulated with human serum albumin (HSA, 5:1 compound to HSA molar ratio) and subsequently diluted with complete DMEM to 200 μM. Fifty microliters of test compound serial dilutions (3-fold) were prepared in 96-well culture plates, after which 50 μL of HEK293T cells (2 × 10^4 cells/well) was added. […] Cytotoxicity was then assessed by quantifying cell viability using the CellTiter 96 Aqueous One Solution Cell Proliferation Assay (Promega, Madison, WI) or resazurin sodium salt (cat# R7017, Merck, Darmstadt, Germany).[61] […] Antiviral activity was then assessed using a single-cycle, nonreplicating, envelope deleted HIV pseudoviral in vitro assay.[62],[63] The assay relies on the introduction of the firefly luciferase gene into HEK293T cells through infection with HIV-like viral particles, containing Reverse Transcriptase (RT) and Integrase (IN) from the HIV-1 subtype C strain MJ4.[64] The expression of the luciferase in the cells is directly proportional to the level of infection by the HIV-like viral particles and can be used to assess the inhibition of HIV-1 RT and IN. To evaluate anti-HIV activity, 3-fold serial dilutions of all final compounds were prepared in 50 μL over the noncytotoxic concentration range (as determined from the cytotoxicity screens described above) in 96-well culture plates. HEK293T cells (2 × 10^4 cells/well) and HIV-like viral particles, standardized to produce a luminescence signal of 1 × 10^6 relative light units (RLUs) in the growth medium only control, were combined, and 50 μL was added to the wells containing serially diluted test compounds. […] The expression of luciferase was subsequently quantified by adding 100 μL of the Bright-Glo Luciferase Assay substrate (Promega, Madison, WI) to each well of the 96-well plates. After incubation at rt for 3 min, luminescence was quantified on the GloMax Explorer Multimode Microplate Reader (Promega, Madison, WI).

SMILES strings stand for the structures.

In general, CC50 refers to the concentration giving 50% cytotoxicity. High values mean better tolerance by the cells, low ones harm at low concentration. `CCCCCCCCCCCCCCCCSCCCOP(=O)(O)CO[C@H](C)Cn1cnc2c(N)ncnc21.N` [2a] came in with a CC50 in the data set with HEK293T cells of 49.8 ± 2.9 µM.
Broadly, the IC50 is the concentration that inhibits the measured activity by half. For the compound `C[C@H](Cn1cnc2c(N)ncnc21)OCP(=O)(O)OCCCSCCCCCCCCCCCCc1ccc(F)cc1.N` [16g], in data set [1], the IC50 was in the range of 0.008 to 0.012 µM.
Regarding `C[C@H](Cn1cnc2c(N)ncnc21)OCP(=O)(O)OCCCSCCCCCCCCCCCCC1CCCCC1.N` [16h], the IC50 in data set [1] is 0.008 to 0.012 µM. In addition, the CC50 in the data set on HEK293T cells is 47.5 ± 8.7 µM.
